In patent US11414387B2, “Oxoacridinyl acetic acid derivatives and methods of use” (Stingthera, Inc., priority 2017, dated 2022):

Assays:
mSTING = mSTING (Mus musculus, UniProt Q3TBT3); assay: Radiometric filtration binding competition assay, mSTING
Procedure: (§1) A radiometric filtration binding competition assay was performed to quantify the binding affinity of compounds of the present application for the human or mouse STING protein, or associated HAQ human isoform. […] The resulting dose response was fit by non-linear regression to determine an IC50 value, from which a Ki value for each compound was extrapolated.
(§2) The resulting complexes were then filtered, dried, and scintillation fluid was added and the remaining radio signal was measured to determine the degree of compound ligand inhibition. This assay format was optimized for both the WT and HAQ isoforms of the human protein and the mouse orthologue protein.
(§3) Probe Concentration: Minimum concentration that achieved max assay window • g. Assay Format: Scintillation Proximity Bead or Filtration Binding Plate • h. […] Assay incubation times for successive incubation steps
(§4) WT-hSWAT: WT_FBA_HIS-SUMO-hSWAT IC50 (μM) (“WT”=Wild-type); HAQ-hSWAT: HAQ_FBA_HIS-SUMO-hSWAT IC50 (μM) (“HAQ”=human HAQ allele of STING protein); and WT-mSWAT: MOUSE_FBA_HIS-SUMO-mnSWAT IC50 (μM) which is the mouse isoform of STING protein.

hSTING-WT = hSTING-WT (Homo sapiens (Human), UniProt Q86WV6, H232R); assay: Radiometric filtration binding competition assay, hSTING-WT
hSTING-HAQ [1] = biological target: T1, hSTING-HAQ (Homo sapiens (Human), UniProt Q86WV6, G230A/H232R/R293Q); assay: Radiometric filtration binding competition assay, hSTING-HAQ
T1 sequence (Q86WV6 140-379 G230A/H232R/R293Q): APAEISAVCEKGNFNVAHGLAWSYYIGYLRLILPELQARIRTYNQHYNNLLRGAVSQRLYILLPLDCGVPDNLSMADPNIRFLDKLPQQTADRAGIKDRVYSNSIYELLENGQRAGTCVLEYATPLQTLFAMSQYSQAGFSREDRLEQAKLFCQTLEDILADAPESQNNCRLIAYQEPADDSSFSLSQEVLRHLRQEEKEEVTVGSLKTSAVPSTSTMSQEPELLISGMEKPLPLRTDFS
Procedure: as §1, §2, §3, §4

mSTING-R232 = mSTING-R232 (Mus musculus, UniProt Q3TBT3); assay: STING differential scanning fluorimetry (DSF) assay, mouse STING; conditions: net shift in melting temperature
Procedure: (§5) A STING DSF assay was performed to determine protein thermostability shift in response to small molecule ligand binding. A STING thermostability shift assay based on differential scanning fluorimetry was used to measure (1) the net shift in melting temperature (ΔTm)between the apo and ligand-bound states of the STING protein and (2) the concentration of the thermal denaturation transition (EC50) as a surrogate measure of binding affinity (K). […] Protein in assay buffer was transferred to a 384 well plate and incubated with the hydrophobic fluorescent dye SYBR Orange. A temperature ramp was applied to the plate and the resulting dye fluorescence was plotted as a function of temperature. The first derivative of this function (dF/dT) was then used to extrapolate the melting temperature of the protein at various concentrations of compound and determine the thermal denaturation profile of a protein/compound complex.
(§6) • 1. Protein construct (affinity tag removal vs SUMO-fusion construct) • 2. Protein concentration • 3. Dye concentration • 4. Buffer • 5. Thermal ramp velocity • 6. DMSO tolerance • 7. Compound titration parameters • 8. […] 5 μM purified Target STING Protein • 3. 8 μM Sypro Orange Dye • 4. Buffer: 100 mM NaCl, 30 mM HEPES, pH 7.5 • 5. Thermal Ramp: 0.5° C./min • 6. <1% DMSO • 7. 11 point, 2 fold dilution, duplicate, 300 μM high concentrations • 8.

hSTING-R232 = hSTING-R232 (Homo sapiens (Human), UniProt Q86WV6, H232R); assay: STING differential scanning fluorimetry (DSF) assay, WT human STING; conditions: WT (R232) human STING aa140-379, net shift in melting temperature
Chain of hSTING-R232 (Q86WV6 140-379 H232R): as the sequence (Q86WV6 140-379 G230A/H232R/R293Q) above, with A91G, Q154R counted along it

hSTING-HAQ [2] = biological target: T1, hSTING-HAQ; assay: STING differential scanning fluorimetry (DSF) assay, HAQ human STING; conditions: HAQ human STING aa140-379, net shift in melting temperature
Procedure: as §5, §6

STING protein = STING protein (Homo sapiens (Human), UniProt Q86WV6, H232R); assay: Cell based reporter assay of IRF activation (IRF-luciferase), THP1-dual-KI R232; conditions: read-out: THP1-dual-KI R232_IRF(Luciferase)_Activity Maximum measured (%)
Chain of STING protein (Q86WV6 whole entry H232R): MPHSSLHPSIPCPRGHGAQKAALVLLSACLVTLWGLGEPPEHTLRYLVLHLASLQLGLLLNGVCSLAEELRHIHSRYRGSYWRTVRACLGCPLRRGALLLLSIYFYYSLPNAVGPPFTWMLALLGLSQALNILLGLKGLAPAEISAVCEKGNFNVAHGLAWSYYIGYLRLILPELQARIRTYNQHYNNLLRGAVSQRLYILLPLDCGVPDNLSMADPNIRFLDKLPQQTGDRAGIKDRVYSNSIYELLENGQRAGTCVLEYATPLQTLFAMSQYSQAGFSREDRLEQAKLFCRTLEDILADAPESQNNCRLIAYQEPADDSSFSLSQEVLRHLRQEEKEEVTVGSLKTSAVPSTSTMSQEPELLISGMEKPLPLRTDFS

hSTING-CTD = hSTING-CTD (Homo sapiens (Human), UniProt Q86WV6); assay: Human STING protein FP competition concentration response assay; type: binding
Chain of hSTING-CTD (Q86WV6 135-379): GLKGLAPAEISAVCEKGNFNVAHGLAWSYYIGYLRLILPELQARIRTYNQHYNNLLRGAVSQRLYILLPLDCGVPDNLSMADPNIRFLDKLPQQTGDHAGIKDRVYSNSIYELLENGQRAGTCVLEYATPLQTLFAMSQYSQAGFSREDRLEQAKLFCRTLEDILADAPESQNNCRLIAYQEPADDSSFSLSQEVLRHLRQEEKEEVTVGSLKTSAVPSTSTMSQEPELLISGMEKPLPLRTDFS
Procedure, shortened: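 Fluorescence polarization competition: recombinant hSTING-CTD (10 uM final) with 30 nM fluorescein-labeled c-di-GMP probe and titrated compound (2-fold, 14 points; 3.35% DMSO) in PBS, 10-20 min at r.t. Fluorescence anisotropy read; IC50 from 4-parameter logistic fit.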

Chain of hSTING-WT (Q86WV6 140-379 H232R): as the sequence (Q86WV6 140-379 G230A/H232R/R293Q) above, with A91G, Q154R counted along it

Compound | IC50 (mSTING) [µM] | IC50 (hSTING-WT) [µM] | IC50 (hSTING-HAQ [1]) [µM] | MOUSE DSF_6xHIS-SUMO Tm Shift (° C.) (mSTING-R232) | WT_DSF_hSWAT Tm Shift (° C.) (hSTING-R232) | HAQ_DSF_hSWAT Tm Shift (° C.) (hSTING-HAQ [2]) | Emax (STING protein) [%] | IC50 (hSTING-CTD) [µM]
CC1(C)CC=C(c2ccc3c(=O)c4ccc(Cl)c(Cl)c4n(CC(=O)O)c3c2)CC1 [Compound 159] | < 20 | 20 to 100 | 20 to 100 | C (“C” = 5-15° C.) | A (“A” < 0° C.) | A (“A” < 0° C.) | 5 to 25 | 
O=C(O)Cn1c2cc(C3CCCCC3)ccc2c(=O)c2ccc(Cl)c(Br)c21 [Compound 147] | < 20 | < 20 | 20 to 100 | D (“D” > 15° C.) | D (“D” > 7° C.) | D (“D” > 7° C.) | > 50 | 
CC(C)(C)c1ccc2c(=O)c3ccc(Cl)c(Br)c3n(CC(=O)O)c2c1 [Compound 176] | < 20 | 20 to 100 | 20 to 100 | D (“D” > 15° C.) | D (“D” > 7° C.) | D (“D” > 7° C.) | > 50 | 
Cc1cccc(-c2ccc3c(=O)c4ccc(Cl)c(Cl)c4n(CC(=O)O)c3c2)c1 [Compound 151] | < 20 | 20 to 100 | 20 to 100 | C (“C” = 5-15° C.) | B (“B” = 0-2° C.) | C (“C” = 2-7° C,) | < 5 | 
O=C(O)Cn1c2cc(C3CCCCC3)ccc2c(=O)c2ccc(Cl)c(Cl)c21 [Compound 115] | < 20 | 20 to 100 | 100 to 300 | D (“D” > 15° C.) | C (“C” = 2-7° C,) | C (“C” = 2-7° C,) | 25 to 50 | < 100
O=C(O)Cn1c2cc(NC3CCCCC3)ccc2c(=O)c2ccc(Cl)c(Br)c21 [Compound 110] | < 20 | < 20 | 20 to 100 | D (“D” > 15° C.) | D (“D” > 7° C.) | D (“D” > 7° C.) | > 50 | 
O=C(O)Cn1c2cc(Nc3ccc(F)cc3)ccc2c(=O)c2ccc(Cl)c(Cl)c21 [Compound 218] | < 20 | < 20 | 20 to 100 | D (“D” > 15° C.) |  | D (“D” > 7° C.) | > 50 | 
O=C(O)Cn1c2cc(Nc3cnccn3)ccc2c(=O)c2ccc(Cl)c(Cl)c21 [Compound 217] | < 20 | 20 to 100 | 100 to 300 |  | D (“D” > 7° C.) | D (“D” > 7° C.) | > 50 | 
COc1c(Cl)ccc2c(=O)c3ccc(Nc4ccccc4)cc3n(CC(=O)O)c12 [Compound 207] | < 20 | < 20 | 20 to 100 | D (“D” > 15° C.) | D (“D” > 7° C.) | D (“D” > 7° C.) | > 50 | 
CC(C)c1ccc2c(=O)c3ccc(Cl)c(Br)c3n(CC(=O)O)c2c1 [Compound 111] | 20 to 100 | 20 to 100 | 100 to 300 | C (“C” = 5-15° C.) | D (“D” > 7° C.) | D (“D” > 7° C.) | > 50 | < 100
COc1c(Cl)ccc2c(=O)c3ccc(C4CCCCC4)cc3n(CC(=O)O)c12 [Compound 220] | 20 to 100 | < 20 | 20 to 100 |  | D (“D” > 7° C.) | D (“D” > 7° C.) | > 50 | 
